Results reported in PubChem BioAssay AID179 (DTP/NCI, 2004).
Activity calls are given as the source filed them.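 Rule for the calls: active = compounds giving half or more protection of infected cells from virus-caused growth loss, again on retest; inactive = the rest.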

System: CEM cells HIV-1 protection, formazan growth assay
Assay: NCI AIDS Antiviral Assay
Details: for IC50: measured here: growth of uninfected CEM cells
Method in brief: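 Human CEM cells, uninfected and HIV-1-infected, received five drug concentrations, and growth was read by soluble formazan assay. Compounds giving at least 50% protection were retested; reproducible 100% protection defined confirmed active.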

Structure (SMILES)	EC50 [µM]	IC50 [µM]	outcome
CCCCCCC[CH2][Sn]([CH2]CCCCCCC)([O]c1cccc2cccnc12)[O]c1cccc2cccnc12	> 21.4	> 21.4	–
COC1OC(C)/C(=N/O)C2OC(C)(C)OC12 (stereo not drawn)	> 1070	> 1070	–
Cc1cn(C2CC(N=[N+]=[N-])C(COC(=O)C3CCC(=O)N3)O2)c(=O)[nH]c1=O (stereo not drawn)	–	49	active
CC(C)(C)N1NC1C1NN1C(C)(C)C (stereo not drawn)	> 200	> 200	–
CCCCC12C3CC4C5C(C)/C(=C6\OC(=O)C(C)=C6OC)OC5(O3)C1CCN42 (stereo not drawn)	> 50.1	> 50.1	–
Nc1ccc(S(=O)(=O)NC(CSSCC(NS(=O)(=O)c2ccc(N)cc2)C(=O)O)C(=O)O)cc1 (stereo not drawn)	> 200	> 200	–
CC1=C(C(=O)NCc2ccccc2)C(/C=C/c2ccccc2)C(C(=O)NCc2ccccc2)=C(C)N1	–	–	inactive
CCOc1ccc(/C(O)=C/c2nc3ccccc3nc2/C=C(\O)c2ccc(OCC)cc2)cc1	> 100	> 100	–
COc1ccc2c(C)cc(N/N=C/c3sccc3C)nc2c1	> 200	8.32	–
CCCCCCc1cc2c(C)c(C)c(=O)oc2cc1OCCCOc1cc2oc(=O)c(C)c(C)c2cc1CCCCCC	> 22.9	> 22.9	–
CN=c1ncn(C)c2ncn(C/C=C(\C)CC[C@@]3(C)C(C)CCC4(O)C3CCCC4(C)C)c12 (stereo partly drawn)	–	–	inactive
CSc1nc(NC2OC(COC(C)=O)C(OC(C)=O)C(OC(C)=O)C2OC(C)=O)c(N=C(C)C(C)=O)c(=O)n1C (stereo not drawn)	–	–	inactive
O=C1OC(=Nc2ccccc2Cl)c2ccccc21	> 200	> 200	–
CCOC(=O)c1ccc(-c2cc(C)no2)[nH]1	> 200	36.3	–
S=C(Nc1ccccc1)N(/N=C/C=C/c1ccccc1)c1nnc(-c2ccccc2)c(-c2ccccc2)n1	> 70.8	43.7	–
O=c1n(-c2ccccc2)c(=O)n2n1C1C=CC2C2C(C1)C2(Cl)Cl (stereo not drawn)	–	–	inactive
CCN(CC)CCOC(=O)C1(CCC(C)C)CCCCC1	> 200	123	–
CC(=O)N(CCc1ccccc1)C(C#N)c1ccc(OCCCCCCCCCCOc2ccc(C(C#N)N(CCc3ccccc3)C(C)=O)cc2)cc1 (stereo not drawn)	> 100	> 100	–
CN(C)c1ccc2c(c1)-c1cc(N(C)C)ccc1C2=C/C=C1\C(=O)c2ccccc2C1=C(C#N)C#N	> 15.5	> 15.5	–
O=C(NCCCN1CCN(CCCNC(=O)c2cc(-c3ccccc3)nc3ccccc23)CC1)c1cc(-c2ccccc2)nc2ccccc12	> 20	2.4	–
COc1ccc(-c2onc(-c3ccc([N+](=O)[O-])cc3)c2C2=NCCCN2)cc1	> 50.1	> 50.1	–
O=c1c(-c2ccc3c(c2)OCO3)coc2c3c(ccc12)OCO3	–	–	inactive

Structure (SMILES)	EC50 [µM]	IC50 [µM]	outcome
NS(=O)(=O)c1ccc(CNC(=O)c2ccccc2SC(=O)OCCCCCl)cc1	4.68	129	–
N#C/C=C\c1ccc(-c2cc(C(F)(F)F)cc(C(F)(F)F)c2)o1	> 200	46.8	–
O=C1CCC[C@H]2O[C@@H](COC(=O)c3ccccc3)C[C@H]2O1	> 200	> 200	–
COc1ccc(/C=N/N=C(\N)NO)c(OC)c1OC	> 200	> 200	–
COc1ccc2nc3ccccc3c(NCCCCCCN(CCCl)CCCl)c2c1	> 0.2	0.162	–
Cc1ccc2oc(=O)c3c(O)c4cccc(OC5OC(C)C6O[C@@H](c7ccccc7)OC6C5OC5OC(C)C(O)C(O)C5O)c4c4oc(=O)c1c2c34 (stereo partly drawn)	> 7.24	0.0324	–
CC(C)C1=CC2=C(C(=O)C1=O)C13CCCC(C)(C)C1CC2OC3=O (stereo not drawn)	> 79.4	28.2	–
O=C1CC2(c3ccccc3)ON=C(c3ccccc3)N2c2ccccc2N1 (stereo not drawn)	> 200	85.1	–
CCOC(=O)COS(=O)(=O)C(F)(F)F	> 1050	> 1050	–
CCN(CC)CCCOP(=O)(OCCCN(CC)CC)OCCCN(CC)CC	20	> 200	–
Cc1ncc[pH]1 (stereo not drawn)	> 138	> 138	–
O=c1sc2ccccc2c2c1C=CCO2	> 46.8	> 46.8	–
C/C(O)=c1\cc(C#N)c(=C(C#N)C#N)nc1C	–	–	inactive
CCOC(=O)/C(=C\c1cccc(C#N)c1)C(C)=O	> 389	28.2	–
CC(=O)NCc1c(C(N)=O)ncn1Cc1ccccc1	–	–	inactive
CCCCCCCCCCCCCCCCC(O)CS(=O)(=O)O (stereo not drawn)	> 100	16.2	–
CN(C)C(C(N)=O)c1ccccc1 (stereo not drawn)	> 200	> 200	–
N#CC1C(=O)NC(=O)C1=O (stereo not drawn)	> 1820	> 1820	–
COc1cc(-c2nn3c(C)c(-c4ccccc4)nc3s2)cc(OC)c1OC	178	> 200	–
O=C(O)C[C@H]1CCCCC12CCOC2=O (stereo partly drawn)	–	–	inactive
O=C(N/C(=C\c1ccc([N+](=O)[O-])cc1)c1nc2ccccc2[nH]1)c1ccccc1	> 35.5	> 35.5	–
